Experimental data published in patent US20180206495A1, “SUBSTITUTED ARYL AND HETEROARYL CARBOXYLIC ACID HYDRAZIDES OR SALTS THEREOF AND USE THEREOF TO INCREASE STRESS TOLERANCE IN PLANTS” (BAYER CROPSCIENCE AKTIENGESELLSCHAFT, priority 2015, published 2018).

Test system: Brassica napus
Assay: In vivo analyses Part B: drought stress, spray application, appearance vs stressed control in categories, Brassica napus
Set-up: key: 0: no positive effect; +: slight positive effect; ++: clear positive effect; +++: strong positive effect
Details: dosage 25 g/ha
Description: (§1) Seeds of monocotyledonous and dicotyledonous crop plants were sown in sandy loam in plastic pots, covered with soil or sand and cultivated in a greenhouse under good growth conditions. The test plants are treated at the early leaf stage (BBCH10-BBCH13). To assure uniform water supply before commencement of stress, the potted plants were supplied with water by dam irrigation prior to substance application. The inventive compounds were first formulated as wettable powders (WP) or dissolved in a solvent mixture. The further dilution was effected with water supplemented with 0.2% wetting agent (e.g. agrotin). The finished spray liquor was sprayed onto the green parts of the plant at an equivalent water application rate of 600 l/ha. Substance application was followed immediately by stress treatment of the plants. Drought stress was induced by gradual drying out under the following conditions: “Day”: 14 hours with illumination at ˜26-30° C. “Night”: 10 hours without illumination at ˜18-20° C. The duration of the respective stress phases was guided mainly by the condition of the stressed control plants. It was ended (by re-irrigating and transfer to a greenhouse with good growth conditions) as soon as irreversible damage was observed on the stressed control plants. The end of the stress phase was followed by an about 4-7-day recovery phase, during which the plants were once again kept under good growth conditions in a greenhouse. The duration of the recovery phase was guided mainly by when the trial plants had attained a state which enabled visual scoring of potential effects, and was therefore variable. Once this juncture had been reached, the appearance of the plants treated with test substances was recorded in comparison to the stressed control plants by the following categories: • 0 no positive effect • + slight positive effect • ++ clear positive effect • +++ strong positive effect In order to rule out any influence on the effects observed by any fungicidal or insecticidal action of the test compounds, it was additionally ensured that the tests proceeded without fungal infection or insect infestation. The values reported in tables B-1 and B-2 below are mean values of the results from at least three repeats. Effects of selected compounds of the general formula (I) under drought stress according to the following tables B-1 and B-2: […]

Row | Structure (SMILES) | Effect (BRSNS)
1 | Cc1ccc(C(=O)N(Cc2ncc(C(F)(F)F)cc2Cl)N(C)C)c(C(F)(F)F)c1 [A50-36, N-[3-Chloro-5-(trifluoromethyl)pyridin-2-yl-methyl]-N′,N′-dimethyl-2-(trifluoromethyl)-4-methylbenzohydrazide] | +
2 | CN(C)N(Cc1cccc(C#N)c1)C(=O)c1ccccc1C(F)(F)F [A1-62] | ++

Same assay, conditions: dosage 250 g/ha

Row | Structure (SMILES) | Effect (BRSNS)
3 | CN(C)N(Cc1ccccc1Cl)C(=O)c1ccccc1I [A36-1] | +
4 | CN(C)N(Cc1c(F)cccc1F)C(=O)c1ccccc1Cl [A10-17] | +
5 | CN(C)N(Cc1nccc(Cl)c1Cl)C(=O)c1ccccc1Cl [A10-40] | ++
6 | CN(C)N(Cc1ncccn1)C(=O)c1ccccc1I [A36-27] | +

Test system: Triticum aestivum
Assay: In vivo analyses Part B: drought stress, spray application, appearance vs stressed control in categories, Triticum aestivum
Set-up: key: 0: no positive effect; +: slight positive effect; ++: clear positive effect; +++: strong positive effect
Details: dosage 25 g/ha
Description: as §1

Row | Structure (SMILES) | Effect (TRZAS)
7 | CN(C1CCCCC1)N(Cc1ccccn1)C(=O)c1cnccc1C(F)(F)F [B18-21] | +
8 | CN(C)N(Cc1ccc(Cl)cc1Cl)C(=O)c1ccc(F)cc1C(F)(F)F [A14-5] | +
9 | COc1ccccc1C(=O)N(Cc1ccc(Cl)nc1)N(C)C [A8-94] | +
10 | CN(C)N(Cc1ccccc1Cl)C(=O)c1ccc(C(F)F)nc1 [B6-1] | ++
11 | CN(C)N(Cc1ccccn1)C(=O)c1cncnc1C(F)(F)F [E1-21] | +
12 | CN(C)N(Cc1ccc(Cl)nc1)C(=O)c1ccc(C(F)(F)F)nc1 [B5-94] | +
13 | CN(C1CCCCC1)N(Cc1ccccc1Cl)C(=O)c1cnccc1C(F)(F)F [B18-1] | ++
14 | COc1ccccc1C(=O)N(Cc1ncc(C(F)(F)F)cc1Cl)N(C)C [A8-36] | ++

Same assay, conditions: dosage 250 g/ha

Row | Structure (SMILES) | Effect (TRZAS)
15 | CN(C)N(Cc1ccc(Cl)nc1)C(=O)c1ccccc1C(F)(F)F [A1-94, N-[(6-Chloropyridin-3-yl)methyl]-N′,N′-dimethyl-2-(trifluoromethyl)benzohydrazide] | +
16 | CN(C)N(Cc1ccccc1Cl)C(=O)c1ccc(Cl)cc1C(F)(F)F [A51-1] | +
17 | CN(C)N(Cc1ccccc1C#N)C(=O)c1ccc(C(F)F)nc1 [B6-61] | +
18 | CN(C)N(Cc1ccc(Cl)nc1)C(=O)c1cnccc1C(F)(F)F [B1-94] | +
19 | CN(C1CCCCC1)N(Cc1ccccn1)C(=O)c1ccccc1C(F)(F)F [A47-21] | +
20 | CCN(C)N(Cc1nccc(Cl)c1Cl)C(=O)c1cnccc1C(F)(F)F [B17-40] | +
21 | CN(C)N(Cc1ccc(Cl)nc1)C(=O)c1cncnc1C(F)(F)F [E1-94] | +
22 | CN(C)N(Cc1ccccc1C#N)C(=O)c1cncnc1C(F)(F)Cl [E3-61] | +
23 | CC(c1ccc(F)cc1)N(C(=O)c1ccccc1C(F)(F)F)N(C)C (stereo not shown) [A1-159] | +
24 | CN(C)N(Cc1c(Cl)cc(Cl)cc1Cl)C(=O)c1ccccc1I [A36-10] | +
25 | CN(C)N(Cc1ccccc1C(F)(F)F)C(=O)c1ccccc1I [A36-81] | +
26 | CCN(CC)N(Cc1ccccn1)C(=O)c1cnccc1C(F)(F)F [B2-21, N′,N′-Diethyl-N-(pyridin-2-ylmethyl)-4-(trifluoromethyl)nicotinohydrazide] | +
27 | CN(C)N(Cc1ccccc1C(F)(F)F)C(=O)c1ccccc1Cl [A10-81] | +
28 | CCN(CC)N(Cc1cccc(Cl)c1Cl)C(=O)c1ccccc1C(F)(F)F [A2-4, N-(2,3-Dichlorobenzyl)-N′,N′-diethyl-2-(trifluoromethyl)benzohydrazide] | +
29 | CN(C)N(Cc1ccc(C#N)cc1)C(=O)c1ccccc1I [A36-63] | +
30 | CN(C)N(Cc1ccccc1Cl)C(=O)c1ccc(C(F)(F)F)nc1 [B5-1] | +
31 | CN(C)N(Cc1c(Cl)cccc1Cl)C(=O)c1ccccc1I [A36-7] | +
32 | CN(C)N(Cc1ccccn1)C(=O)c1ccc(C(F)F)nc1 [B6-21] | +
33 | CN(C)N(Cc1nccc(Cl)c1Cl)C(=O)c1ccccc1I [A36-40] | +
34 | CCN(C)N(Cc1ccccc1C#N)C(=O)c1ccccc1C(F)(F)F [A5-61] | +
